Test results as given in publication PMC7247680, “Novel Indole-Based Hydrazones as Potent Inhibitors of the α-class Carbonic Anhydrase from Pathogenic Bacterium Vibrio cholerae” (International Journal of Molecular Sciences, 2020).

Target: T1, VcCA (α-class carbonic anhydrase from Vibrio cholerae) (Vibrio cholerae, UniProt Q9KMP6)
T1 construct: gene VC_A0274
Assay: stopped-flow CO2 hydration assay, Cheng-Prusoff
Assay type: biochemical
Settings: read-out: KI * (nM) / VcCA; CO2 substrate, pH 7.4, 10 mM Hepes, 0.1 M NaClO4, 25 °C, 15 min pre-incubation

T1 sequence (Q9KMP6 21-239 limits assumed): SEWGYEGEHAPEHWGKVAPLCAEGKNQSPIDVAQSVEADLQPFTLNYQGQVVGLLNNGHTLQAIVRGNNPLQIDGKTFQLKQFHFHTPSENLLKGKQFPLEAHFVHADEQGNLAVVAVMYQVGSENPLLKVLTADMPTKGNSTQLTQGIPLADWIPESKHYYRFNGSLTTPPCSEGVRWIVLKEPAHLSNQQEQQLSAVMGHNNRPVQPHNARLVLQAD

NS(=O)(=O)c1ccc2[nH]c(C(=O)NN=Cc3c[nH]c4ccccc34)c(-c3ccccc3)c2c1 [compound 9, 9 (R = H, R1 = indol-3-yl)] and NS(=O)(=O)c1ccc2[nH]c(C(=O)NN=Cc3cccs3)c(-c3ccccc3)c2c1 [compound 4, 4 (R = H, R1 = thiophen-2-yl)] are within 1.5-fold of each other in Ki: 60.5 nM for the first, 80.4 nM for the second.

Compared with CN1CCC(=NNC(=O)c2[nH]c3ccc(S(N)(=O)=O)cc3c2-c2ccccc2)CC1 [compound 23, 23 (R/R1 = 1-methylpiperidin-4-yl)], NS(=O)(=O)c1ccc2[nH]c(C(=O)NN=C3CCCC3)c(-c3ccccc3)c2c1 [compound 16, 16 (R/R1 = cyclopentyl)] is 2.7-fold higher in Ki: 25.2 nM for the first, 68 nM for the second. The first binds more tightly here.

First: CC(C)(C)C1CCC(=NNC(=O)c2[nH]c3ccc(S(N)(=O)=O)cc3c2-c2ccccc2)CC1 (stereo not shown) [compound 22, 22 (R/R1 = 4-tert-butylcyclohexyl)]
Second: CC1CCC(=NNC(=O)c2[nH]c3ccc(S(N)(=O)=O)cc3c2-c2ccccc2)CC1 (stereo not shown) [compound 18, 18 (R/R1 = 4-methylcyclohexyl)]
The Ki of the first is 2.1-fold lower: 34.1 nM for the first, 71.4 nM for the second.

Compared with C=NNC(=O)c1[nH]c2ccc(S(N)(=O)=O)cc2c1-c1ccccc1 [compound 10, 10 (R = H, R1 = H)], CC=NNC(=O)c1[nH]c2ccc(S(N)(=O)=O)cc2c1-c1ccccc1 [compound 11, 11 (R = H, R1 = CH3)] is 1.7-fold lower in Ki: 46.6 nM for the first, 27.1 nM for the second.

NS(=O)(=O)c1ccc2[nH]c(C(=O)NN=Cc3cccnc3)c(-c3ccccc3)c2c1 [compound 7, 7 (R = H, R1 = pyridin-3-yl)] and NS(=O)(=O)c1ccc2[nH]c(C(=O)NN=Cc3ccncc3)c(-c3ccccc3)c2c1 [compound 8, 8 (R = H, R1 = pyridin-4-yl)] are within 1.5-fold of each other in Ki: 74.2 nM for the first, 72.1 nM for the second.

NS(=O)(=O)c1ccc2[nH]c(C(=O)NN=C3CCCCC3)c(-c3ccccc3)c2c1 [compound 17, 17 (R/R1 = cyclohexyl)] and CCC1CCC(=NNC(=O)c2[nH]c3ccc(S(N)(=O)=O)cc3c2-c2ccccc2)CC1 (stereo not shown) [compound 19, 19 (R/R1 = 4-ethylcyclohexyl)] are within 1.5-fold of each other in Ki: 81.4 nM for the first, 62.1 nM for the second.

CCCC1CCC(=NNC(=O)c2[nH]c3ccc(S(N)(=O)=O)cc3c2-c2ccccc2)CC1 (stereo not shown) [compound 20, 20 (R/R1 = 4-propylcyclohexyl)] and NS(=O)(=O)c1ccc2[nH]c(C(=O)NN=C3CCC(c4ccccc4)CC3)c(-c3ccccc3)c2c1 (stereo not shown) [compound 21, 21 (R/R1 = 4-phenylcyclohexyl)] are within 1.5-fold of each other in Ki: 67.5 nM for the first, 52.1 nM for the second.

NS(=O)(=O)c1ccc2[nH]c(C(=O)NN=C3CCN(Cc4ccccc4)CC3)c(-c3ccccc3)c2c1 [compound 24, 24 (R/R1 = 1-benzylpiperidin-4-yl)] and Cn1cccc1C=NNC(=O)c1[nH]c2ccc(S(N)(=O)=O)cc2c1-c1ccccc1 [compound 6, 6 (R = H, R1 = 1-CH3-pyrrol-2-yl)] are within 1.5-fold of each other in Ki: 92.4 nM for the first, 74.1 nM for the second.

First: CC(CC(C)C)=NNC(=O)c1[nH]c2ccc(S(N)(=O)=O)cc2c1-c1ccccc1 [compound 15, 15 (R = CH3, R1 = isobutyl)]
Second: CC(C)=NNC(=O)c1[nH]c2ccc(S(N)(=O)=O)cc2c1-c1ccccc1 [compound 12, 12 (R = CH3, R1 = CH3)]
The Ki of the first is 3.5-fold higher: 79.6 nM for the first, 22.8 nM for the second. The second binds more tightly here.

In the case of NS(=O)(=O)c1ccc2[nH]c(C(=O)NN=Cc3ccc(Br)s3)c(-c3ccccc3)c2c1 [compound 5, 5 (R = H, R1 = 5-Br-thiophen-2-yl)], the Ki is reported as 94.8 nM.
